We go through 12 compounds from patent US7714146B2, “Azulene-oxindole compounds as multiple-kinase inhibitors and useful as anticancer agents” (Industrial Technology Research Institute, priority 2006, dated 2010).

Common to all, as to assay type: biochemical
Experiment [1] concerns the target T1, human PDGFRβ (Gln557-Leu1106) (Homo sapiens, UniProt P09619).
T1 construct: human PDGFRβ (Gln557-Leu1106); GST (N); purchased Cell Signaling Technology; host or cells: baculovirus expression system
Description: PDGFR-beta kinase assay (HTScan kit, DELFIA). As to conditions: compound at 10 μM. On the procedure:
Compounds 1-100 were treated for their efficacy in inhibiting activities of FLT-3, c-KIT, KDR/Flk-1, PDGFR-beta, EGFR, and PKC kinases by biochemical DELFIA (Dissociation Enhanced Lanthanide FIA) assays according to the procedure described below. The assays were conducted by, Division of Cell Engineering, Biomedical Engineering Research Laboratories, Industrial Technology Research Institute, Bldg. 53, 195, sec. 4, Chung Hsing Rd. Chutung, Hsinchu, Taiwan 310, R.O.C.
The PDGFR-beta assay was conducted following the protocol described in Protocol for HTScan® PDGFR-beta Kinase Assay Kit (Cell Signaling Technology®). The assay was conducted under the following conditions: PDGFR-beta source: The GST-Kinase fusion protein was produced using a baculovirus expression system with a construct expressing human PDGFRβ (Gln557-Leu1106) (GenBank Accession No. NM_002609) with an amino-terminal GST tag, substrate: This biotinylated peptide contains the residues surrounding Tyr-589 of FLT-3, vehicle: 1% DMSO, pre-incubation time/temperature: 5 minutes at room temperature, incubation time/temperature: 30 minutes at room temperature, incubation buffer: 60 mM HEPES pH 7.5, 5 mM MgCl2, 5 mM MnCl2, 3 μM Na3VO4, 1.25 mM DTT, 20 μM ATP, and quantitative method: DELFIA® Assay.

Experiment [2] addresses T2, human FLT-3 (Arg571-Ser993) (Homo sapiens, UniProt P36888).
T2 construct: human FLT-3 (Arg571-Ser993); GST (N); purchased Cell Signaling Technology; host or cells: baculovirus expression system
T2 sequence (P36888 571-993): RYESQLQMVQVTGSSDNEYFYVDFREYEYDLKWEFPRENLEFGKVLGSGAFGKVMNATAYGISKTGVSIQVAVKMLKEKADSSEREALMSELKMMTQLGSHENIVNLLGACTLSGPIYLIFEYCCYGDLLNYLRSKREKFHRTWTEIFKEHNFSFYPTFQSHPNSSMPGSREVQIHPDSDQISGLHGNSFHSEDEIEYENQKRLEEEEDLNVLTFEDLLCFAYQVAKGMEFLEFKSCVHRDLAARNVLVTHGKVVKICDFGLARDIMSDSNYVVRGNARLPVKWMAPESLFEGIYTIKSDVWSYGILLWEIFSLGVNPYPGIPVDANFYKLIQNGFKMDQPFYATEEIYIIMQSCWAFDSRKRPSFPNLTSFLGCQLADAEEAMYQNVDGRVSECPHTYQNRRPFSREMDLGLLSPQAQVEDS
Description: FLT-3 kinase assay (HTScan kit, DELFIA). The conditions noted are these: for inhibition at 1 µM: compound at 1 μM, read-out: FLT-3 1 μM, % of inhibition relative to control; for inhibition at 0.1 µM: compound at 0.1 μM, read-out: FLT-3 0.1 μM, % of inhibition relative to control. The method, boiled down:
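GST-tagged human FLT-3 (Arg571-Ser993, baculovirus-expressed) phosphorylated 1.5 μM biotinylated gastrin precursor peptide with 20 μM ATP in HEPES pH 7.5, Mg/Mn buffer and 1% DMSO. After 5 min preincubation, the reaction ran 30 min at room temperature. Phosphorylation was read by DELFIA.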

In experiment [3] the target is T3, human VEGFR-2 (Val789-Val1356) (Homo sapiens, UniProt P35968).
T3 construct: human VEGFR-2 (Val789-Val1356); GST (N); purchased Cell Signaling Technology; host or cells: baculovirus expression system
T3 sequence (P35968 789-1356): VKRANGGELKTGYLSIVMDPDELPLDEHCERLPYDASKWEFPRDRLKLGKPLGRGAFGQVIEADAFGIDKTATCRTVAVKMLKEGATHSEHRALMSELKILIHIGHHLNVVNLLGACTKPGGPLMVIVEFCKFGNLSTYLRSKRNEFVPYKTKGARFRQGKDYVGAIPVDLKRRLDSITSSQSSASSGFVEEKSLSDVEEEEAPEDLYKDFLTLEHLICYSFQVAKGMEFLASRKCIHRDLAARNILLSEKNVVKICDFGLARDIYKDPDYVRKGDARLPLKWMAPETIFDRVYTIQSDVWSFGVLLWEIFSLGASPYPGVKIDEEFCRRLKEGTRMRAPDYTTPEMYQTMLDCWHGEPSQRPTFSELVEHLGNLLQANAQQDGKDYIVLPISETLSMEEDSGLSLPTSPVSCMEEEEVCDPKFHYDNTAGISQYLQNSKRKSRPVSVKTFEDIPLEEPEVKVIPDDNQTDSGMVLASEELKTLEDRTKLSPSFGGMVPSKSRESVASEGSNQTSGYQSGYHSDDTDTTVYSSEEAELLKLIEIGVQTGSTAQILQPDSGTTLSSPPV
The experiment can be described thus: KDR kinase assay (HTScan VEGFR-2 kit, DELFIA). As to conditions: for inhibition at 0.1 µM: compound at 0.1 μM, read-out: KDR 0.1 μM, % of inhibition relative to control; for inhibition at 1 µM: compound at 1 μM, read-out: KDR 1 μM, % of inhibition relative to control. The essentials:
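GST-tagged human VEGFR-2 (Val789-Val1356) from baculovirus, with 1.5 μM biotinylated gastrin precursor peptide and 20 μM ATP in HEPES pH 7.5, Mg/Mn, vanadate, DTT, 1% DMSO. Pre-incubation 5 min, reaction 30 min at room temperature; phosphorylation read by DELFIA.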

Experiment [4] has as its target T4, human c-KIT (Thr544-Val976) (Homo sapiens, UniProt P10721).
T4 construct: human c-KIT (Thr544-Val976); GST (N); purchased Cell Signaling Technology; host or cells: baculovirus expression system
Description: c-KIT kinase assay (HTScan kit, DELFIA). As to conditions: for inhibition at 0.1 µM: compound at 0.1 μM, read-out: c-KIT 0.1 μM, % of inhibition relative to control; for inhibition at 1 µM: compound at 1 μM, read-out: c-KIT 1 μM, % of inhibition relative to control. The essentials:
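GST-tagged human c-KIT (Thr544-Val976) from baculovirus, with 1.5 μM biotinylated KDR Tyr-996 peptide and 20 μM ATP in HEPES pH 7.5 buffer containing Mg2+/Mn2+ and 1% DMSO. Enzyme and compound pre-incubated 5 min, reaction run 30 min at room temperature; phosphorylation detected by DELFIA.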

T4 sequence (P10721 544-976): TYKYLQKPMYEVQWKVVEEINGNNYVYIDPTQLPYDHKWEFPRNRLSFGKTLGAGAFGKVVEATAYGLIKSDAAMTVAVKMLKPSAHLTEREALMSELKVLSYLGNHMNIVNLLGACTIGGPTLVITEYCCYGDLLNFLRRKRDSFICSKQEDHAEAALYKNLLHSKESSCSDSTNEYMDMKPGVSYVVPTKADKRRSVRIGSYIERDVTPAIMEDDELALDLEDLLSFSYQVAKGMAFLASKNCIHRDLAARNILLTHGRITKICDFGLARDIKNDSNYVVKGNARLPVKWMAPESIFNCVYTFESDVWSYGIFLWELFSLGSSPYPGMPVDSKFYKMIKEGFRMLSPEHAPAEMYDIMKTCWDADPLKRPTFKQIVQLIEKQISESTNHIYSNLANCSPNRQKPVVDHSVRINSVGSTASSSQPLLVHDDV
T1 sequence (P09619 557-1106): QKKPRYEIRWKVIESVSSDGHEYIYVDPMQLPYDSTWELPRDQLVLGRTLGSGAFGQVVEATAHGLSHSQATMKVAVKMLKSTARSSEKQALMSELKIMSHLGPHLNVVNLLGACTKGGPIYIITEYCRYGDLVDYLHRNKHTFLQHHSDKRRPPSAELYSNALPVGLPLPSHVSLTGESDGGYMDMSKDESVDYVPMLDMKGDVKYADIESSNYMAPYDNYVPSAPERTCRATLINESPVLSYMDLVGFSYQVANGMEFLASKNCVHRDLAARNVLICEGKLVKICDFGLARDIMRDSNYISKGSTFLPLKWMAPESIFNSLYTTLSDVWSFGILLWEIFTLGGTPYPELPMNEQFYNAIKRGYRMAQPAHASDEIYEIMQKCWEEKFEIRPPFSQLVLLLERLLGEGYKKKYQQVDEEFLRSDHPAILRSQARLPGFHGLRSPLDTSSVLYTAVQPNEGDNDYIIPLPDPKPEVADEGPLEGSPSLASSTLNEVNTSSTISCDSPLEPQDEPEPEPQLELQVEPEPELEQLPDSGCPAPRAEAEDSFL

A word on the inhibition: it is the relative decrease from the control value, in per cent. Take `O=C1/C(=C/c2ccc3cccccc2-3)c2ccccc2N1C(c1ccccc1)c1ccccc1` [Compound 3, 3-Azulen-1-ylmethylene-1-benzhydryl-1,3-dihydro-indol-2-one]: in experiment [1], the “PDGFR-β 10 μM, % of inhibition relative to control” value is given as 14.4%. The inhibition at 1 µM in experiment [2] worked out at 5.1%.
Consider `O=C1Nc2ccc(Br)cc2/C1=C/c1ccc2cccccc1-2` [Compound 6, 3-Azulen-1-ylmethylene-5-bromo-1,3-dihydro-indol-2-one], for which, in experiment [3], the inhibition at 0.1 µM was found to be 19.6% and the inhibition at 1 µM was found to be 29.7%. Further, in experiment [1], the “PDGFR-β 10 μM, % of inhibition relative to control” value came to 35.5%. In experiment [4], the inhibition at 0.1 µM worked out at 36.6% and the inhibition at 1 µM stood at 36.6%.
Regarding `O=C1Nc2ccc(Br)cc2/C1=C\c1ccc2cccccc1-2` [Compound 7, 3-Azulen-1-ylmethylene-5-bromo-1,3-dihydro-indol-2-one], the inhibition at 0.1 µM in experiment [3] was found to be 29.5%; in experiment [2] it was 17.8%; in experiment [4], 30.9%. Besides, the inhibition at 1 µM amounted to 28.8% in experiment [3], 40.1% in experiment [2] and 30.9% in experiment [4]. The “PDGFR-β 10 μM, % of inhibition relative to control” value in experiment [1] is given as 4.7%.
In the case of `O=C1Nc2ccc(F)cc2/C1=C/c1ccc2cccccc1-2` [Compound 26, 3-Azulen-1-ylmethylene-5-fluoro-1,3-dihydro-indol-2-one], the inhibition at 0.1 µM in experiment [3] was 33.9%; in experiment [2] it was 5%; in experiment [4], 60.4%. Moreover, the inhibition at 1 µM in experiment [3] is 59.1%; in experiment [2], 34.7%; in experiment [4], 60.4%. The “PDGFR-β 10 μM, % of inhibition relative to control” value in experiment [1] turned out to be 7.9%.
`Cc1cc(C)c2ccc(/C=C3/C(=O)Nc4ccccc43)c-2c(C)c1` [Compound 9, 3-(4,6,8-Trimethyl-azulen-1-ylmethylene)-1,3-dihydro-indol-2-one]: the inhibition at 0.1 µM in experiment [3] is 12.3%; in experiment [4], 11.5%. The inhibition at 1 µM in experiment [3] came out at 33.4%; in experiment [2], 3.8%; in experiment [4], 11.5%. Further, the “PDGFR-β 10 μM, % of inhibition relative to control” value in experiment [1] was found to be 14.7%.
Turning to `Cc1cc(/C=C2/C(=O)Nc3ccccc32)c2c(C)ccc(C(C)C)cc1-2` [Compound 12, 3-(5-Isopropyl-3,8-dimethyl-azulen-1-ylmethylene)-1,3-dihydro-indol-2-one], in experiment [3], the inhibition at 0.1 µM is 17.3% and the inhibition at 1 µM came out at 34.3%. In addition, the “PDGFR-β 10 μM, % of inhibition relative to control” value in experiment [1] was 7.3%. In experiment [4], the inhibition at 0.1 µM amounted to 14.7% and the inhibition at 1 µM was 14.7%.
With `Cc1cc(C)c2ccc(/C=C3/C(=O)N(Cc4ccccc4)c4ccccc43)c-2c(C)c1` [Compound 10, 1-Benzyl-3-(4,6,8-trimethyl-azulen-1-ylmethylene)-1,3-dihydro-indol-2-one], in experiment [3], the inhibition at 0.1 µM came out at 22.1% and the inhibition at 1 µM came out at 38.5%. Further, the “PDGFR-β 10 μM, % of inhibition relative to control” value in experiment [1] was 18.6%. In experiment [4], the inhibition at 0.1 µM came to 8.4% and the inhibition at 1 µM was determined as 8.4%.
In the case of `O=C1Nc2ccc([N+](=O)[O-])cc2/C1=C/c1ccc2cccccc1-2` [Compound 8, 3-Azulen-1-ylmethylene-5-nitro-1,3-dihydro-indol-2-one], the inhibition at 0.1 µM in experiment [3] is 26.4%; in experiment [4], 36.4%. The figures for the inhibition at 1 µM in experiment [3], in experiment [2] and in experiment [4] were 55.9%, 11.5% and 36.4%, respectively. The “PDGFR-β 10 μM, % of inhibition relative to control” value in experiment [1] was 16.2%.
As to `COC(=O)c1cc(/C=C2\C(=O)Nc3ccccc32)c2cccccc1-2` [Compound 16, 3-(2-Oxo-1,2-dihydro-indol-3-ylidenemethyl)-azulene-1-carboxylic acid methyl ester], the inhibition at 0.1 µM stood at 15.4% in experiment [3], 7.7% in experiment [2] and 2.8% in experiment [4]. Further, the inhibition at 1 µM in experiment [3] turned out to be 20.1%; in experiment [4], 2.8%. Moreover, the “PDGFR-β 10 μM, % of inhibition relative to control” value in experiment [1] was 3.6%.
On to `O=C1Nc2ccccc2/C1=C\c1c2cccccc-2[nH]c1=O` [Compound 27, 3-(2-Oxo-1,2-dihydro-indol-3-ylidenemethyl)-1H-cyclohepta[b]pyrrol-2-one], for which the inhibition at 0.1 µM in experiment [3] amounted to 25.9%; in experiment [2], 8.6%; in experiment [4], 25.7%. Besides, the results for the inhibition at 1 µM in experiment [3], in experiment [2] and in experiment [4] were 39.5%, 30.9% and 25.7%, respectively. Moreover, the “PDGFR-β 10 μM, % of inhibition relative to control” value in experiment [1] is 5.3%.
With `O=C1C(=Cc2ccc3cccccc2-3)c2ccccc2N1Cc1ccccc1` [Compound 2, 3-Azulen-1-ylmethylene-1-benzyl-1,3-dihydro-indol-2-one], the inhibition at 1 µM in experiment [3] worked out at 10.3%. Moreover, in experiment [1], the “PDGFR-β 10 μM, % of inhibition relative to control” value is 3.6%. For the same compound, in experiment [4], the inhibition at 0.1 µM worked out at 24.7% and the inhibition at 1 µM stood at 24.7%.
For `O=C1Nc2ccc(Cl)cc2/C1=C\c1ccc2cccccc1-2` [Compound 22, 3-Azulen-1-ylmethylene-5-chloro-1,3-dihydro-indol-2-one], the inhibition at 0.1 µM in experiment [3] was 15.6%; in experiment [2], 28.8%; in experiment [4], 16.6%. Further, the values for the inhibition at 1 µM in experiment [3], in experiment [2] and in experiment [4] were 40.6%, 30.3% and 16.6%, respectively. For the same compound, the “PDGFR-β 10 μM, % of inhibition relative to control” value in experiment [1] was 5.3%.
